# Measurements published in patent US10160763B2, “WDR5 inhibitors and modulators” (Vanderbilt University, priority 2016, dated 2018).
# Molecular target: WDR5 (Δ23, residues 24-334) (Homo sapiens, UniProt P61964)
# Assay: biochemical
# Settings: Kd (M), FPA-based binding affinity at the WDR5 WIN site; IC50 converted to Kd by modified Cheng-Prusoff equation; average of two experiments
row,Structure (SMILES),Kd [M]
1,COc1cc(C(=O)N(Cc2cc(-c3cn4c(n3)CCC4)ccc2N2CCOCC2)CC2CCCCC2)ccc1C [B198],1.59e-07
2,CC(C)N1CCCC(C(=O)NCc2cc(-c3cn4c(n3)CCC4)ccc2OC2CCC2)C1 (stereo not drawn) [B199],6.3e-06
3,COc1cc(C(=O)N(Cc2cc(-c3cn4c(n3)CCC4)ccc2N2CCOCC2)CC2CC2)ccc1C [B200],4.04e-06
4,O=C(Cc1ccc(F)c(Cl)c1)N(Cc1cc(-c2cn3c(n2)CCC3)ccc1N1CCOCC1)CC1CCOCC1 [B202],4.56e-07
5,CC(NC(=O)Cc1ccc(F)c(Cl)c1)c1cccc(-c2cn3c(n2)CCC3)c1 (stereo not drawn) [B206],1.35e-06
6,CCC(=O)N1CCCC(C(=O)NC(C)c2cc(-c3cn4c(n3)CCC4)ccc2OC2CCC2)C1 (stereo not drawn) [B210],3.1e-07
7,COc1cc(C(=O)NC(C)c2cc(-c3cn4c(n3)CCC4)ccc2N2CCOCC2)ccc1C (stereo not drawn) [B213],4.7e-08
8,CC(C)(NC(=O)Cc1ccc(F)c(Cl)c1)c1cccc(-c2cn3c(n2)CCC3)c1 [B216],5.99e-07
9,NC(C(=O)NCc1cc(-c2cn3c(n2)CCC3)ccc1N1CCOCC1)c1ccccc1 (stereo not drawn) [B218],1.79e-07
10,NC(C(=O)NCc1cc(-c2cn3c(n2)CCC3)ccc1OC1CCC1)c1ccccc1 (stereo not drawn) [B219],3.83e-07
11,"COc1cc(C(=O)NC(c2cccc(-c3cn4c(n3)CCC4)c2)C(C)C)ccc1C (stereo not drawn) [B220, N-(1-(3-(6,7-Dihydro-5H-pyrrolo[1,2-a]imidazol-2-yl)phenyl)-2-methylpropyl)-3-methoxy-4-methylbenzamide]",2.04e-07
12,CC(C)C(NC(=O)Cc1ccc(F)c(Cl)c1)c1cccc(-c2cn3c(n2)CCC3)c1 (stereo not drawn) [B221],1.17e-07
13,CC(NC(=O)Cc1ccc(F)c(Cl)c1)c1cc(-c2cn3c(n2)CCC3)ccc1F (stereo not drawn) [B222],9.9e-08
14,"COc1cc(C(=O)NCc2cc(-c3cn4c(n3)CCC4)cnc2N2CCOCC2)ccc1C [B223, N-((5-(6,7-dihydro-5H-pyrrolo[1,2-a]imidazol-2-yl)-2-morpholinopyridin-3-yl)methyl)-3-methoxy-4-methylbenzamide]",9.1e-08
15,O=C(Cc1ccc(F)c(Cl)c1)NCc1cc(-c2cn3c(n2)CCC3)cnc1OC1CCC1 [B224],6.1e-08

# Next, values leading:
row,Kd [M],Structure (SMILES)
1,2.3e-08,COc1cc(C(=O)NC(C)c2cccc(-c3cn4c(n3)CCC4)c2)ccc1C (stereo not drawn) [B201]
2,2.3e-08,COc1cc(C(=O)NCc2cc(-c3cn4c(n3)CCC4)ccc2N2CCOCC2C)ccc1C (stereo not drawn) [B203]
3,2.6e-08,COc1cc(C(=O)N(Cc2cc(-c3cn4c(n3)CCC4)ccc2N2CCOCC2)CC2CCOCC2)ccc1C [B204]
4,2.3e-08,COc1cccc(C(=O)NC(C)c2cccc(-c3cn4c(n3)CCC4)c2)c1 (stereo not drawn) [B205]
5,1.6e-08,COc1cc(C(=O)NC(C)c2cc(-c3cn4c(n3)CCC4)ccc2OC2CCC2)ccc1C (stereo not drawn) [B207]
6,2.2e-08,CC(=O)N1CCCC(C(=O)NC(C)c2cc(-c3cn4c(n3)CCC4)ccc2OC2CCC2)C1 (stereo not drawn) [B208]
7,1e-08,CC(=O)N1CCCC(C(=O)NC(C)c2cccc(-c3cn4c(n3)CCC4)c2)C1 (stereo not drawn) [B209]
8,1.1e-08,CCC(=O)N1CCCC(C(=O)NC(C)c2cccc(-c3cn4c(n3)CCC4)c2)C1 (stereo not drawn) [B211]
9,4.7e-08,CC(NC(=O)Cc1ccc(F)c(Cl)c1)c1cc(-c2cn3c(n2)CCC3)ccc1OC1CCC1 (stereo not drawn) [B212]
10,4e-08,CC(NC(=O)Cc1ccc(F)c(Cl)c1)c1cc(-c2cn3c(n2)CCC3)ccc1N1CCOCC1 (stereo not drawn) [B214]
11,1.7e-08,CCC(NC(=O)c1ccc(C)c(OC)c1)c1cccc(-c2cn3c(n2)CCC3)c1 (stereo not drawn) [B215]
12,3.2e-08,CCC(NC(=O)Cc1ccc(F)c(Cl)c1)c1cccc(-c2cn3c(n2)CCC3)c1 (stereo not drawn) [B217]
